According to patent US20250090659A1, “COMBINATION THERAPY WITH AN ANTI-CD19 ANTIBODY AND PARSACLISIB” (Incyte Corporation, priority 2020, published 2025):

Assays:
[1] = test system: A20 murine lymphoma cells; assay: In vivo efficacy in A20 mouse lymphoma model; set-up: species or system Balb/c mice
Procedure: Female Balb/c mice were subcutaneously inoculated with 5×10^5 A20 murine lymphoma cells to form flank tumors. When tumors reached approximately 100 mm^3, mice were randomized into 4 groups for dosing (N=10 mice/group). Dosing groups were as follows: (1) Vehicle (5% dimethyl acetimde+95% methylcellulose)-administered by mouth twice a day; (2) Murine anti-CD19 antibody (12014B35 from Absolute Antibody)—[…] administered intraperitoneally once weekly; (3) Parsaclisib (INCB050465)—3 mg/kg administered by mouth twice a day; and (4) Murine anti-CD19 antibody+Parsaclisib.
Tumor volumes were measured twice weekly. The study concluded when mean tumor volumes of each group reached 2000 mm^3. All doses were tolerated as assessed by body weights. Percent tumor growth inhibition (TGI %) was calculated by: [1-(mean tumor volume of test group)/(mean tumor volume of vehicle group)]×100. Tumor growth delay (TGD) was determined by the number of days needed (approximate) after dosing ceases for mean tumor volumes of dosed groups to reach the final mean tumor volume of the vehicle group.

Pfeiffer cells = assay: Cell proliferation (Cell titer Glo), Pfeiffer; assay type: cell-based; settings: no NK cells, 24, 48 and 72 hours
Procedure: (§1) Besides ADCC cytotoxicity, effects of tafasitamab and parsaclisib on cell proliferation were also evaluated by treating target cells with matrix dosing of tafasitamab and parsaclisib in the absence of NK cells. After 24 hours, 48 hours, and 72 hours, proliferation was assessed by adding 100 ul of Cell titer Glo to wells containing 100 ul of treated cells in duplicates. The data was presented as RLUs, which is in proportion to cell proliferation.

SuDHL6 cells = assay: Cell proliferation (Cell titer Glo), SuDHL6; assay type: cell-based; settings: no NK cells, 24, 48 and 72 hours
Procedure: as §1

WSU-NHL cells = assay: Cell proliferation (Cell titer Glo), WSU-NHL; assay type: cell-based; settings: no NK cells, 24, 48 and 72 hours
Procedure: as §1

SuDHL4 cells = assay: Cell proliferation (Cell titer Glo), SuDHL4; assay type: cell-based; settings: no NK cells, 24, 48 and 72 hours
Procedure: as §1

Mec1 cells = assay: ADCC assay with NK cells, Mec1 target cells; assay type: cell-based; settings: Mec1 cells pre-treated 7 days with parsaclisib 0.3 to 20 μM or DMSO, E:T 2:1, tafasitamab 1:10 dilutions from 1 μg/ml, 4 hours, dead target cells by flow cytometry
Procedure: (§2) The cytotoxicity of tafasitamab and parsaclisib (INCB050465) alone and in combination was tested in the following cells lines: MEC-1 (CLL), MEC-2 (CLL), JVM-2 (Mantle Cell Lymphoma), WSU-NHL, Pfeiffer, Su-DHL4, and Su-DHL6.
(§3) Target cells were pre-treated for 7 days with various doses of parsaclisib in the range of 0.3 to 20 μM (parsaclisib alone group and tafasitamab and parsaclisib combination group). The tafasitamab alone group was pre-treated with DMSO for the same period of time.
NK cells were isolated from human primary PBMC from multiple donors using EasySep™ Human NK Cell Isolation Kit (STEMCELL Technologies) and frozen. NK cells were thawed and cultured overnight in medium supplemented with 2 IU/ml of IL-2 (Peprotech) 24 hours before the ADCC assay.
The following controls were used in all experiments: (i) Target cells+NK cells without antibodies; (ii) Target cells+NK cells+huIgG1 isotype control antibody; and (iii) Target cells alone. […]
(§4) The cytotoxicity of tafasitamab alone was evaluated following the same procedure in cells that were treated with DMSO. […] After 4 hours incubation, cells were stained with Zombie Violet fixable cell viability dye (Biolegend 423114) and measured by flow cytometry to evaluate cell toxicity. […]

Mec2 cells = assay: Cell proliferation (Cell titer Glo), Mec2; assay type: cell-based; settings: no NK cells, 24, 48 and 72 hours
Procedure: as §1

JVM2 cells [2] = assay: Cell proliferation (Cell titer Glo), JVM2; assay type: cell-based; settings: no NK cells, 24, 48 and 72 hours
Procedure: as §1

JVM2 cells [3] = assay: ADCC assay with NK cells, JVM2 target cells; assay type: cell-based; settings: JVM2 cells pre-treated 7 days with parsaclisib 0.3 to 20 μM or DMSO, E:T 2:1, tafasitamab 1:10 dilutions from 1 μg/ml, 4 hours, dead target cells by flow cytometry
Procedure: as §2, §3
NK cells were isolated from human primary PBMC from multiple donors using EasySep™ Human NK Cell Isolation Kit (STEMCELL Technologies) and frozen. NK cells were thawed and cultured overnight in medium supplemented with 2 IU/ml of IL-2 (Peprotech) 24 hours before the ADCC assay. […]
as §4
Data from two separately conducted experiments were analyzed to assess potential synergistic activity of tafasitamab and parsaclisib in JVM2 cells. […] Synergy scores were calculated using SynergyFinder 2.0 (https://synergyfinder.fimm.fi). […]

Molecule | TGI (%) ([1]; A20 flank tumors in Balb/c mice, antibody 150 mg i.p. once weekly, parsaclisib 3 mg/kg by mouth twice a day, vs vehicle group) | TGD ([1]; approximate days after dosing ceases for mean tumor volume to reach final mean tumor volume of vehicle group) | cell proliferation (RLUs) (Pfeiffer cells) | cell proliferation (RLUs) (SuDHL6 cells) | cell proliferation (RLUs) (WSU-NHL cells) | cell proliferation (RLUs) (SuDHL4 cells) | ADCC activity (Mec1 cells) | cell proliferation (RLUs) (Mec2 cells) | cell proliferation (RLUs) (JVM2 cells [2]) | ADCC activity (JVM2 cells [3])
CCOc1c(C(C)n2nc(C)c3c(N)ncnc32)cc(Cl)c(F)c1C1CNC(=O)C1 (stereo not drawn) [Parsaclisib, 4-{3-[1-(4-amino-3-methyl-1H-pyrazolo[3,4-d]pyrimidin-1-yl)ethyl]-5-chloro-2-ethoxy-6-fluorophenyl}pyrrolidin-2-one] | 26.6% | 1.4 days | proliferation was inhibited by the treatment of parsaclisib in time and dose dependent manners | showed sensitivity to neither | proliferation was inhibited by the treatment of parsaclisib in time and dose dependent manners | showed sensitivity to neither |  |  |  | 
Tafasitamab: IgG1-G2/kappa Fc-engineered (S239D, I332E) monoclonal antibody targeting human CD19; heavy chain SEQ ID NO:2, light chain SEQ ID NO:3 (antibody) heavy: EVQLVESGGGLVKPGGSLKLSCAASGYTFTSYVMHWVRQAPGKGLEWIGYINPYNDGTKYNEKFQGRVTISSDKSISTAYMELSSLRSEDTAMYYCARGTYYYGTRVFDYWGQGTLVTVSSASTKGPSVFPLAPSSKSTSGGTAALGCLVKDYFPEPVTVSWNSGALTSGVHTFPAVLQSSGLYSLSSVVTVPSSSLGTQTYICNVNHKPSNTKVDKKVEPKSCDKTHTCPPCPAPELLGGPDVFLFPPKPKDTLMISRTPEVTCVVVDVSHEDPEVQFNWYVDGVEVHNAKTKPREEQFNSTFRVVSVLTVVHQDWLNGKEYKCKVSNKALPAPEEKTISKTKGQPREPQVYTLPPSREEMTKNQVSLTCLVKGFYPSDIAVEWESNGQPENNYKTTPPMLDSDGSFFLYSKLTVDKSRWQQGNVFSCSVMHEALHNHYTQKSLSLSPGK light: DIVMTQSPATLSLSPGERATLSCRSSKSLQNVNGNTYLYWFQQKPGQSPQLLIYRMSNLNSGVPDRFSGSGSGTEFTLTISSLEPEDFAVYYCMQHLEYPITFGAGTKLEIKRTVAAPSVFIFPPSDEQLKSGTASVVCLLNNFYPREAKVQWKVDNALQSGNSQESVTEQDSKDSTYSLSSTLTLSKADYEKHKVYACEVTHQGLSSPVTKSFNRGEC |  |  |  | showed sensitivity to neither |  | showed sensitivity to neither | displayed ADCC activity in a dose dependent manner | proliferation was inhibited by tafasitamab in time and dose dependent manners | proliferation was inhibited by tafasitamab in time and dose dependent manners | displayed ADCC activity in a dose dependent manner
